In patent publication US9040249B2, “Pan-kinase activation and evaluation of signaling pathways” (Beckman Coulter, Inc., priority 2008, dated 2015):
Several values for one entry are separate records, joined by “and”; a condition that tells them apart may be missing. Identical values can stand only once. Entries after “also recorded” stand apart in the source; their conditions may differ.

Columns and labels:
ribosomal S6 protein [1] = assay: Inhibition of S6 activation by LPS with ERK and PI3K inhibitors; type: cell-based, human
Protocol: (§1) 100 μl of blood was inserted into the bottom of 12×75 mm tubes. Blood was removed from the side of tube with cotton swab to eliminate potential contamination of the sample with unfixed cells. 100 ng lipopolysaccharide (LPS) was added to activation tubes (or equal volume of phosphate buffered saline (PBS) to control tubes) and the tubes were placed in 37° C. water bath.
(§2) After various incubation times (e.g. 1 minute to 60 minutes), the first tube was removed from the incubator and 65 μl 10% formaldehyde was added into tube. The tubes were mixed and placed in a rack and incubated at room temperature. After exactly a 10 minute incubation with formaldehyde, 1 ml Lyse/Permeabilization Buffer ([…] TRITON X-100 10% stock solution to 500 ml with PBS. 0.1165% TRITON X-100 solution at room temperature in the dark and pre-heated to 37° C. immediately prior to use.) was added to each tube, vortexed vigorously and returned to the rack. The tubes were incubated at room temperature for 15 minutes.
2 ml cold Wash Buffer (PBS (w/o Ca++/Mg++) with 4% FBS, sterile filtered (0.22 um filter)) (4° C.) was added to each tube. All tubes were centrifuged at 500×g for 4 minutes. […]
Antibodies and cold Wash Buffer were added to a final volume of 100 μl and incubated at room temperature for 30 minutes. […] Cells were resuspended in 1 ml Wash Buffer, vortexed and analyzed on the flow cytometer. […]

ERK [2] = assay: LPS activation of MAPK signaling in whole blood monocytes, flow cytometry (P-ERK); type: cell-based, human
Protocol: as §1, §2
(§3) 2 ml cold Wash Buffer (PBS (w/o Ca++/Mg++) with 4% FBS, sterile filtered (0.22 um filter)) (4° C.) was added to each tube. All tubes were centrifuged at 500×g for 4 minutes. Tubes were removed from the centrifuge and supernate fluid was aspirated. 1 ml of cold (4° C.) 50% methanol was added to each tube and vortexed. All tubes were then incubated on ice for 10 minutes.
(§4) The tubes were then centrifuged at 500×g for 4 minutes and the supernate fluid was aspirated. 2 ml cold Wash Buffer (4° C.) was added to each tube. All tubes were centrifuged at 500×g for 4 minutes. Tubes were removed from the centrifuge and supernate fluid was aspirated.
(§5) Antibodies and cold Wash Buffer were added to a final volume of 100 μl and incubated at room temperature for 30 minutes. 2 ml cold Wash buffer was added, mixed and centrifuged. Cells were resuspended in 1 ml Wash Buffer, vortexed and analyzed on the flow cytometer.
(§6) In this study, a simultaneous measurement of four different signaling phospho-epitopes, which include P-ERK, P-p38 MAP Kinase, P-SAPK (Stress-Activated Protein Kinase), and P-S6 ribosomal protein (a measurement of new polypeptide synthesis), was conducted. This assay employed a measurement of the time course of LPS activation, in both “naive” whole blood, and whole blood samples previously exposed to LPS activation (“re-activated”). This assay also employed the fixation and permeabilization approach described above to measure both cell surface (CD14 to identify monocytes) and cytoplasmic or nuclear localized phospho-epitopes (P-ERK, P-p38, P-SAPK, and P-S6). This assay also employed an internal negative control to analyzing the data, relying on populations, rather than isotype controls, and measuring changes in MFI (mean fluorescence intensity) rather than percent positive.

ribosomal S6 protein [3] = assay: LPS activation of ribosomal S6 protein in whole blood monocytes, flow cytometry (P-S6); type: cell-based, human
Protocol: as §1, §2, §3, §4, §5, §6

ERK [4] = settings: cited from earlier work
p38 MAP Kinase = assay: LPS activation of MAPK signaling in whole blood monocytes, flow cytometry (P-p38); type: cell-based, human
Protocol: as §1, §2, §3, §4, §5, §6

SAPK/JNK = assay: LPS activation of MAPK signaling in whole blood monocytes, flow cytometry (P-SAPK/JNK); type: cell-based, human
Protocol: as §1, §2, §3, §4, §5, §6

[5] = normal samples not previously exposed to LPS
[6] = normal whole blood, LPS 10 minutes at 37° C.
[7] = re-stimulation after 60 minutes, up to 2 hours
[8] = previously LPS-stimulated, 0 time of re-exposure
[9] = up to 120 minutes post stimulation

N#CC(=C(/N)Sc1ccccc1N)/C(C#N)=C(\N)Sc1ccccc1N [U0126]
inhibition of S6 activation by LPS (ribosomal S6 protein [1]; ERK inhibitor U0126 and PI3K inhibitor Ly294002 both present): inhibition of phosphorylation was seen; also recorded: Complete inhibition | inhibition of S6 activation by LPS (ribosomal S6 protein [1]; inhibitor alone): Only inhibition of both pathways leads to complete inhibition

lipopolysaccharide [LPS]
ERK pathway activity after 60 minutes of LPS activation (ERK [2]; 60 minutes): decreased, but do not return to baseline | early P-ERK peak, time after LPS addition (ERK [2]; [5]): 1 to 4 min | second P-ERK peak, time after LPS stimulation (ERK [2]; [5]): 10 to 15 min | activated ERK in CD14+ monocytes (ERK [2]; [6]): all CD14+ monocytes have activated p-38, JNK, and ERK | ERK activity when additional LPS is added (ERK [2]; [7]): no additional increase in any MAPK activity | ERK activation six minutes after LPS activation (ERK [2]; six minutes, 37° C.): initial ERK activation declines | MFI of P-ERK upon re-exposure to LPS (ERK [2]; up to 90 minutes after LPS re-stimulation, versus 0 time control): does not change significantly above the 0 time control | earliest ERK activation, time following LPS stimulation (ERK [2]; whole blood monocytes, 37° C., before JNK or p38 activation): 2 min | peak activation of S6 relative to other pathway proteins (ribosomal S6 protein [3]; LPS stimulated monocytes): later than other MAPK pathway proteins | time of P-S6 peak after LPS stimulation (ribosomal S6 protein [3]; normal individuals, primary stimulation): 15 to 30 min and 15 to 60 min | persistence of P-S6 levels following LPS stimulation (ribosomal S6 protein [3]; primary stimulation): > 120 min | MFI of the P-S6 population following LPS re-stimulation (ribosomal S6 protein [3]; re-stimulation): little change in the MFI | percent of monocytes expressing phospho-ERK after LPS treatment in vitro (ERK [4]; normal controls, 15 min after LPS addition, 35% without LPS): 58% | increase in P-ERK monocytes following LPS addition in vitro (ERK [4]; presumably septic patients, 25% before LPS): less than 10% | percentage of P-p38 positive monocytes (p38 MAP Kinase; 15 min after LPS re-exposure): 46% | aggregate MFI of P-p38 (p38 MAP Kinase; 15 minutes after re-exposure to LPS): 5.5 | p38 pathway activity after 60 minutes of LPS activation (p38 MAP Kinase; 60 minutes): decreased, but do not return to baseline | monocytes retaining the same P-p38 MFI as in the 15 min primary response (p38 MAP Kinase; 120 min after primary LPS stimulation): Roughly 50% | monocyte population showing significant increase in P-p38 MFI (p38 MAP Kinase; after primary LPS stimulation): about 100% | levels of P-p38 after primary LPS stimulation (p38 MAP Kinase; even after periods of 120 min): do not return to basal levels | activated p38 in CD14+ monocytes (p38 MAP Kinase; [6]): all CD14+ monocytes have activated p-38, JNK, and ERK | aggregate MFI of P-p38 (p38 MAP Kinase; [8]): 5.0 | percentage of P-p38 positive monocytes (p38 MAP Kinase; [8]): 40% | time to maximal P-p38 MFI after LPS stimulation (p38 MAP Kinase; primary LPS stimulation): 15 min | P-p38 MFI peak time after restimulation with LPS (p38 MAP Kinase; re-stimulation): 15 to 20 min | p38 activity when additional LPS is added (p38 MAP Kinase; [7]): no additional increase in any MAPK activity | JNK pathway activity after 60 minutes of LPS activation (SAPK/JNK; 60 minutes): decreased, but do not return to baseline | time of P-SAPK peak after initial LPS stimulation (SAPK/JNK; initial stimulation): 15 min | activated JNK in CD14+ monocytes (SAPK/JNK; [6]): all CD14+ monocytes have activated p-38, JNK, and ERK | JNK activity when additional LPS is added (SAPK/JNK; [7]): no additional increase in any MAPK activity | P-SAPK levels after initial LPS stimulation (SAPK/JNK; [9]): do not return to basal levels | P-SAPK positive monocytes (SAPK/JNK; [9]): 30-40%
